Measured values taken from publication PMC6883173 (Nature, 2019).

Legend:
[1] = biological target: SpoT1–387 (Pseudomonas aeruginosa, UniProt Q9HTM0); assay: NDK/PK/LDH coupled NADH assay; format: biochemical
[2] = biological target: PurF^EC (Escherichia coli, UniProt P0AG16); assay: coupled PurD/PK/LDH NADH assay; format: biochemical; conditions: 30 °C; 50 nM PurF, 5 mM glutamine, 1 mM pRpp-Mg, 10 mM MgCl2, pH 7.4
[3] = biological target: the molecule itself; assay: crystal structure

Nc1ncnc2c1ncn2[C@@H]1O[C@H](COP(=O)(O)OP(=O)(O)O)[C@@H](OP(=O)(O)OP(=O)(O)O)[C@H]1O [ppApp]
NDK/PK/LDH coupled NADH assay (A340) ([1]; 1 mM ppApp, otherwise same): ppGpp-hydrolyzing domain of SpoT was substantially less active on ppApp than ppGpp in vitro
activity versus concentration [2]: Changes to the activity of PurF^EC in the presence of indicated concentrations of ppGpp or ppApp

Nc1nc2c(ncn2[C@@H]2O[C@H](COP(=O)(O)OP(=O)(O)O)[C@@H](OP(=O)(O)OP(=O)(O)O)[C@H]2O)c(=O)[nH]1 [ppGpp]
NDK/PK/LDH coupled NADH assay (A340) ([1]; 1 mM ppGpp, 10 uM enzyme, 5 mM MnCl2, 2 mM MgCl2, pH 7.4, 30 °C): ppGpp-hydrolyzing domain of SpoT was substantially less active on ppApp than ppGpp in vitro

B1: PurF from E. coli (PurF^EC), glutamine amidophosphoribosyltransferase (enzyme, UniProt P0AG16 1-505, looked up)
chain: MCGIVGIAGVMPVNQSIYDALTVLQHRGQDAAGIITIDANNCFRLRKANGLVSDVFEARHMQRLQGNMGIGHVRYPTAGSSSASEAQPFYVNSPYGITLAHNGNLTNAHELRKKLFEEKRRHINTTSDSEILLNIFASELDNFRHYPLEADNIFAAIAATNRLIRGAYACVAMIIGHGMVAFRDPNGIRPLVLGKRDIDENRTEYMVASESVALDTLGFDFLRDVAPGEAIYITEEGQLFTRQCADNPVSNPCLFEYVYFARPDSFIDKISVYSARVNMGTKLGEKIAREWEDLDIDVVIPIPETSCDIALEIARILGKPYRQGFVKNRYVGRTFIMPGQQLRRKSVRRKLNANRAEFRDKNVLLVDDSIVRGTTSEQIIEMAREAGAKKVYLASAAPEIRFPNVYGIDMPSATELIAHGREVDEIRQIIGADGLIFQDLNDLIDAVRAENPDIQQFECSVFNGVYVTKDVDQGYLDFLDTLRNDDAKAVQRQNEVENLEMHNEG
stoichiometry N [3]: 4
